{
  "source": "patent US20230190937A1",
  "about": "“IRON COMPLEXES OF ESTERIFIED DERIVATIVES OF NATURAL PRODUCTS, AND METHODS OF USE” (CORNELL UNIVERSITY, priority 2021, published 2023)",
  "protocol": "Preparation of curcumin in coconut oil. To a round bottom flask with a magnetic stir bar, 20 mg of curcumin and 25 mL (23000 mg) of coconut oil were added. The flask was placed in a water bath at 40° C. and the mixture was stirred for 30 min. The sample was then cooled to room temperature and centrifuged to remove non-dissolved residue of curcumin.\n(§1) The sample was then cooled to room temperature and used for the next studies.\nas §1",
  "data": [
    {"molecule": "COc1cc(/C=C/C(=O)CC(=O)/C=C/c2ccc(O)c(OC)c2)ccc1O", "note": "[curcumin]", "values": [
      {"measurement": "solubility (concentration) in coconut oil", "value": "around 0.08 wt %"}
    ]}
  ]
}
